# Test results as given in PMC10121968, “Fosgonimeton, a Novel Positive Modulator of the HGF/MET System, Promotes Neurotrophic and Procognitive Effects in Models of Dementia” (Neurotherapeutics, 2022).
# Non-standard residues stand in square brackets, D forms with d. Residues, ends and D or L forms follow the SMILES beside them. *: point of attachment. Hexanoyl = CCCCCC(=O)*; Ahx = NCCCCCC(=O)O
# Assays:
# [1] = system: primary rat hippocampal neurons; experiment: Synaptogenesis assay (synaptobrevin-II staining); format: cell-based; details: 8 days, vs vehicle
# Method: On day 0, rat hippocampal neurons from newborn pups were isolated and cultured in brain neuronal culture medium (neurobasal medium supplemented with 5% FBS, 2% B-27 supplement, and 0.003% gentamycin) at 37 °C under 5% CO2. At 1 day in vitro (DIV1), cells were transferred to a poly-D-lysine–coated 24-well plate at approximately 10,000 cells/well. Cells were then grown in […] of serum-free medium and treated with the following: 0.1% dimethyl sulfoxide (DMSO; vehicle), 10 nM dihydrotestosterone (positive control), 10 nM fosgo-AM, 1 nM fosgo-AM, 5 ng/ml HGF, or 5 ng/ml HGF + 1 nM fosgo-AM. All treatments contained a final concentration of 0.1% DMSO. For the neurite outgrowth assay, treatment media were refreshed on DIV3, and cells were processed for analysis on DIV4. For the synaptogenesis assay, treatment media were refreshed on DIV3 and DIV6, and cells were processed for analysis on DIV8. Processing for both the neurite outgrowth and the synaptogenesis assays was performed as follows: media were removed, and cells were fixed with 100% methanol for 20 min at RT before methanol was aspirated and each well was washed twice with Dulbecco’s phosphate-buffered saline (DPBS). Cells were permeabilized using 0.02% […] (ThermoFisher, Waltham, Massachusetts) in DPBS for 2 min at RT without shaking, and plates were blocked with 5% bovine serum albumin (BSA) in DPBS for 1 h at RT. […] Ten images of single cells from a total of 2 assays were analyzed using NeuroJ plug-in for ImageJ to assess neurite outgrowth, as neurite length and the number of branches per neuron were counted for each cell. For the synaptogenesis assay, synaptic count (number of synapses) and synaptic strength (relative abundance of presynaptic vesicles per synapse as measured by synaptobrevin-II fluorescence intensity) were quantified for each cell. Data were assessed for normality (Shapiro–Wilk) and homoscedasticity (Brown-Forsythe). […]
# [2] = system: primary rat cortical neurons; experiment: Neuroprotection, Cell Titer-Glo cell viability assay; format: cell-based; details: for percentage of recovery of cell viability: 1 µM, 24 h
# Method: A Cell Titer-Glo (CTG) Luminescent Cell Viability Assay (Promega, Cat #G7571, Madison, Wisconsin) was used to assess the neuroprotective potential of fosgo-AM. Brain cortices were dissected from P1–3 rat pups and homogenized in DMEM containing 10% FBS. The resulting suspension was then incubated with a DNase/papain/trypsin solution for 30 min at 37 °C, followed by incubation in a collagenase solution for 1 h. Cells were then seeded at 5000 cells/well in 384-well plates and maintained at 37 °C and 5% CO2 in Complete Neurobasal Medium supplemented with B27/GDNF/BDNF containing 10% FBS. One day later, cultures were switched to serum-free neurobasal medium supplemented with 2% B27 and maintained until neuronal maturity (35–40 DIV). Media were changed every 3 days, and fresh medium was applied 24 h before each experiment. Cells were then treated with fosgo-AM at 1 µM, 100 nM, 10 nM, or 1 nM in a 0.5% DMSO vehicle for 15 min, and subjected to several conditional insults, including 1-methyl-4-phenylpryidinium (MPP+; 500 µM), glutamate (25 µM), lipopolysaccharide (LPS; 1 µM), or hydrogen peroxide (H2O2; 1 µM) for 24 h. After 24 h, 25 µL CTG reagent was added to each well and the plate was incubated with shaking for 15 min. Luminescence measurements to assess relative levels of ATP were performed on an Envision plate reader (PerkinElmer, Waltham, Massachusetts). Data for the vehicle control were set to 100% cell viability, and data for each other group were averaged, normalized to vehicle control, and presented as mean ± SEM. Data were assessed for normality (Shapiro–Wilk) and homoscedasticity (Brown-Forsythe). Statistical analyses were performed using one-way ANOVA with Tukey’s Multiple Comparison test (Prism GraphPad, San Diego, California). A value of p < 0.05 was considered to represent a statistically significant difference.
structure (smiles),measurement,setting,value
CCCCCC(=O)N[C@@H](Cc1ccc(O)cc1)C(=O)N[C@H](C(=O)NCCCCCC(N)=O)[C@@H](C)CC [fosgo-AM] (Hexanoyl-Tyr-Ile-[Ahx]-NH2),number of synapses (synaptic count),[1]; 1 nM fosgo-AM + 5 ng/mL HGF,significantly increased the number of synapses
same,synaptobrevin-II immunofluorescence intensity (synaptic strength),[1]; 1 nM fosgo-AM + 5 ng/mL HGF,significantly enhanced immunofluorescence intensity of synaptobrevin-II
same,synaptobrevin-II immunofluorescence intensity (synaptic strength),[1]; 1 nM,significantly enhanced immunofluorescence intensity of synaptobrevin-II
same,percentage of recovery of cell viability,[2]; versus H2O2 (1 µM),144%
same,percentage of recovery of cell viability,[2]; versus LPS (1 µM),93%
same,percentage of recovery of cell viability,[2]; versus MPP+ (500 µM),85%
same,percentage of recovery of cell viability,[2]; versus glutamate (25 µM),61%
same,cell viability,"[2]; all tested concentrations (1 nM–1 µM), against all insults (MPP+, glutamate, LPS, H2O2)",Significant improvement in cell viability
